# Molecular target: T1, α1β3γ2 GABAA receptor, γ2S325L variant (Homo sapiens, UniProt P14867+P18507+P28472, S325L)
# T1 construct: expressed in transfected cells; host or cells: HEK293T
# T1 sequence (P14867 28-456): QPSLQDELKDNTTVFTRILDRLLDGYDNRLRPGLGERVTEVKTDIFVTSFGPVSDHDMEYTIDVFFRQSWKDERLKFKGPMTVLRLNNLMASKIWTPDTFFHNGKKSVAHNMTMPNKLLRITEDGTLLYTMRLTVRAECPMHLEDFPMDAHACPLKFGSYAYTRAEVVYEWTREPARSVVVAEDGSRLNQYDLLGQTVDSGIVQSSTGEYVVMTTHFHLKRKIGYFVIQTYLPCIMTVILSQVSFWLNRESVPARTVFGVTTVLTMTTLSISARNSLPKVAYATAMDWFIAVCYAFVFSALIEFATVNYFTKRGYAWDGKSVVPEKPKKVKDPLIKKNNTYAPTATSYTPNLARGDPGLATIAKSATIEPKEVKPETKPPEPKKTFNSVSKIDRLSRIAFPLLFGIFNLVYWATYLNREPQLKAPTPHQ
# T1 sequence (P28472 26-473 isoform P28472-2): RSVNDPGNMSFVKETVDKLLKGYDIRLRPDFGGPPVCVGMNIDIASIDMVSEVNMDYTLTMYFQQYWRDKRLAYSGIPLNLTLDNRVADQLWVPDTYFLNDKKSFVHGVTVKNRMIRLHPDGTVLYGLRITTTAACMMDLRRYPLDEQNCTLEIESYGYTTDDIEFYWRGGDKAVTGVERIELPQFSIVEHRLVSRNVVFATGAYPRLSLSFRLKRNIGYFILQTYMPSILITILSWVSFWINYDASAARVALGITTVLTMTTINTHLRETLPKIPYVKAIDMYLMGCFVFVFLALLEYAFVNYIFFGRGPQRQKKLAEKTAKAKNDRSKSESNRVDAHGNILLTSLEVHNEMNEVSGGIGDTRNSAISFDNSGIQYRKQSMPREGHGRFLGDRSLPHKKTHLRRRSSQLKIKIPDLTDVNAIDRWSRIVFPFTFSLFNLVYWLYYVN
# T1 sequence (P18507 40-475 S325L): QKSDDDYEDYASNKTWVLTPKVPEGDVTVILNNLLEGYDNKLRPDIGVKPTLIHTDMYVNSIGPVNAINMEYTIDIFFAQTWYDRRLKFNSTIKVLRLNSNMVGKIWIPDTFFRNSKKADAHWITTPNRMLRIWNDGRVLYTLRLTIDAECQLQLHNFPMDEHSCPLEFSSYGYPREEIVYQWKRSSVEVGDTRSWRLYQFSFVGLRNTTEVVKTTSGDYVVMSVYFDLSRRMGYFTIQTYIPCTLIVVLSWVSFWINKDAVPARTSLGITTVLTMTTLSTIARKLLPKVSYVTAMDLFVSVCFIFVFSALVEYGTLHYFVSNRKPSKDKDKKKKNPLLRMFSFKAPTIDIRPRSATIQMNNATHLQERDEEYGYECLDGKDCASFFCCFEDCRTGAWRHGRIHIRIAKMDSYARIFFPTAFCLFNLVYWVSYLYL
# Test: Automated patch clamp of GABA-elicited currents (SyncroPatch 384PE), γ2S325L
# Assay type: cell-based
# Settings: mean
# Procedure: The coding sequences of human α1 (GABRA1, NM_000806), β3 (GABRB3, NM_021912), and γ2 (GABRG2, NM_198904.2) GABAAR subunits were subcloned into the pcDNA3.1 expression vectors (Invitrogen, Waltham, MA, USA).
# HEK293T cells (ATCC, CRL-11268) were cultured at 37 °C in a humidified 5% CO2 incubator and maintained in Dulbecco’s modified Eagle’s medium (Invitrogen) supplemented with 10% fetal bovine serum (Life Technologies, Carlsbad, CA, USA), and 100 IU/mL of penicillin/streptomycin (Life Technologies). For the expression experiments, 4 × 10^5 cells were transfected using polyethylenimine (PEI) reagent (40 kD, Polysciences, Warrington, PA, USA) at a DNA: to transfection reagent ratio of 1:2.5 and harvested 36 h after transfection. To express WT and variant α1β3γ2 receptors, a total of 3 µg of α1, β3, and γ2 (WT or mutant) subunit cDNAs were transfected at a ratio of 1:1:1 into 60 mm culture dishes. For the mock-transfected condition, an empty pcDNA3.1 vector was added for a final cDNA transfection amount of 3 μg. For the electrophysiology experiments, 2.5 × 10^5 cells were plated in 100 mm culture dishes and transfected after 24 h with 3 μg of cDNA of each α1, β3, γ2 (wild-type or mutant) subunit, using X-tremeGENE HP DNA transfection Reagent (Roche Diagnostics, Basel, Switzerland), following the manufacturer’s protocol. Recordings were obtained forty-eight hours after transfection.
# Whole-cell patch clamp recordings were conducted according to the manufacturer’s standard procedure for the SyncroPatch 384 [31]. Whole-cell voltage-clamp recordings were performed at room temperature on HEK293T cells 48 h after transfection with GABAAR subunits, using the SyncroPatch 384PE (Nanion Technologies, Munich, Germany). Cells, at a concentration of 400,000 cells/mL, were harvested in suspension in external solution containing 140 mM of NaCl, 2 mM of CaCl2, 4 mM of KCl, 1 mM of MgCl2, 5 mM of glucose, and 10 mM of HEPES (pH 7.4 with NaOH, 298 mOsm). The cells were loaded in a multi-hole (4 holes per well) 384-well Nanion patch clamp (NPC) chip with a thick borosilicate glass bottom and an average resistance pore size of […]. Built-in electrophysiological protocols were used, and the data were digitized using PatchControl 384 (Nanion Technologies) application. Using PatchControl 384, electrophysiological parameters, such as seal resistance, capacitance, and series resistance, were determined for each well after the application of a test pulse, and subsequently monitored over time. […] The currents were normalized to the maximal response of each well, and the concentration–response curves were calculated from single-point additions. The EC50 values for each variant or wild-type receptor were calculated across multiple wells for each experimental condition.
structure (smiles),measurement,setting,value
"NCCCC(=O)O [GABA, γ-aminobutyric acid]",Deactivation,"1 mM GABA for 5 ms, HEK293T, -80 mV",307.7 ms
same,IMAX (maximal GABA-evoked peak current),"1 mM GABA for 5 ms, HEK293T",0.78 nA
same,IMAX variant/IMAX WT,1 mM GABA,39.07%
same,Rise Time,"10–90% rise time, 1 mM GABA for 5 ms, HEK293T",68.01 ms

# — publication PMC10046037, “GABRG2 Variants Associated with Febrile Seizures” (Biomolecules, 2023)
